According to paper PMC11025159 (Journal of Translational Medicine, 2024):

Test system: athymic nude mice (NU/J Foxn1nu)
Assay: Hair growth in athymic nude mice (topical, 28 days)
Type: in vivo
Conditions: for H&E skin histopathology finding / hair follicle grade: day 28; for early onset of hair: topical
Experimental: The groups are as follows: Group 1-Control (untreated), Group 2-Vehicle control, Group 3-tofacitinib citrate (0.8 mg/Kg), Group 4-tofacitinib citrate (0.08 mg/Kg), Group 5-MJ04 (0.08 mg/Kg), Group 6-MJ04 (0.04 mg/Kg), Group 7-MJ04 (0.016 mg/Kg), Group 8-baricitinib (0.1 mg/Kg), Group 9-baricitinib (0.04 mg/Kg), and Group 10-baricitinib (0.02 mg/Kg). At the end of the experiment, skin samples were collected and preserved in 10% neutral buffered formalin for tissue sectioning and staining using haematoxylin and eosin (H&E). The histopathological examinations were performed under the 10× and 40× objectives of light microscope (Magnus, Mx21i), and hair follicles were graded on a scale of 0 to 4 (++++).
The skin samples collected from athymic nude mice (NU/J Foxn1^nu) were preserved in 10% neutral buffered formalin and processed for tissue sectioning. The skin sections (10 µm) of nude mice were stained using haematoxylin and eosin (H&E) and viewed under 10× and 40× objectives of the light microscope (Magnus, Mx21i). The histopathological examination of the samples was performed, and the hair follicles in the skin sections were graded on a scale of 0 to 4 (++++).

SMILES | H&E skin histopathology finding (0.02 mg/kg) | hair follicle grade (0.02 mg/kg) | H&E skin histopathology finding (0.04 mg/kg) | hair follicle grade (0.04 mg/kg) | H&E skin histopathology finding (0.1 mg/kg) | hair follicle grade (0.1 mg/kg) | early onset of hair | H&E skin histopathology finding (0.016 mg/kg) | hair follicle grade (0.016 mg/kg) | H&E skin histopathology finding (0.08 mg/kg) | hair follicle grade (0.08 mg/kg)
CCS(=O)(=O)N1CC(CC#N)(n2cc(-c3ncnc4[nH]ccc34)cn2)C1 [Baricitinib, baricitinib, reference compound] | Moderate degree of epidermal thickening | ++++ (graded on a scale ranging from 0 to 4 (++++)) | Moderate degree of epidermal thickening | ++++ (graded on a scale ranging from 0 to 4 (++++)) | Increased and morphologically distinct hair follicles | +++ (graded on a scale ranging from 0 to 4 (++++)) | 12 days |  |  |  | 
Fc1ccc(-c2cnc3[nH]cc(-c4ccnc(NC5CC5)n4)c3c2)cc1 [MJ04] |  |  | Mild epidermal thinning with increased hair follicles in the dermis and hypodermis | ++++ (graded on a scale ranging from 0 to 4 (++++)) |  |  | 12 days | Mild epidermal thickening with increased hair follicles | +++ (graded on a scale ranging from 0 to 4 (++++)) | Minimal epidermal thickening with moderate hair follicle | ++ (graded on a scale ranging from 0 to 4 (++++))
